Reference: article PMC10866072, “Design, synthesis, molecular modelling and biological evaluation of novel 6-amino-5-cyano-2-thiopyrimidine derivatives as potent anticancer agents against leukemia and apoptotic inducers” (Journal of Enzyme Inhibition and Medicinal Chemistry, 2024)

Legend:
[1] = system: OVCAR-5; type: cell-based; settings: Homo sapiens, one dose 10^-5 M, 48 h
[2] = system: CCRF-CEM; type: cell-based; settings: Homo sapiens, one dose 10^-5 M, 48 h
[3] = system: IGROV1; type: cell-based; settings: Homo sapiens, IGROV-1, one dose 10^-5 M, 48 h, read-out: % growth
[4] = system: CAKI-1; type: cell-based; settings: Homo sapiens, CAKI-1, 48 h, one dose 10^-5 M, 48 h
[5] = system: SK-MEL-28; type: cell-based; settings: Homo sapiens, one dose 10^-5 M, 48 h
[6] = system: SK-MEL-5; type: cell-based; settings: Homo sapiens, one dose 10^-5 M, 48 h, read-out: % growth
[7] = system: SN12C; type: cell-based, human; settings: Homo sapiens, one dose 10^-5 M, 48 h
[8] = system: RXF 393; type: cell-based; settings: Homo sapiens, RXF 393, 48 h, one dose 10^-5 M, 48 h, read-out: % growth
[9] = system: NCI-H23; type: cell-based; settings: Homo sapiens, one dose 10^-5 M, 48 h, read-out: % growth
[10] = system: HOP-92; type: cell-based; settings: Homo sapiens, one dose 10^-5 M, 48 h
[11] = system: RPMI-8226; type: cell-based; settings: Homo sapiens, one dose 10^-5 M, 48 h
[12] = system: HS 578T; type: cell-based; settings: Homo sapiens; one dose 10^-5 M, 48 h; HS 578T; read-out: % growth
[13] = system: OVCAR-4; type: cell-based; settings: Homo sapiens, one dose 10^-5 M, 48 h
[14] = system: PC-3; type: cell-based; settings: Homo sapiens, one dose 10^-5 M, 48 h
[15] = system: HCT-116; type: cell-based; settings: Homo sapiens, one dose 10^-5 M, 48 h, read-out: % growth
[16] = system: A549/ATCC; type: cell-based; settings: Homo sapiens, one dose 10^-5 M, 48 h
[17] = system: NCI-H460; type: cell-based; settings: Homo sapiens, one dose 10^-5 M, 48 h, read-out: % growth
[18] = system: BT-549; type: cell-based; settings: Homo sapiens, one dose 10^-5 M, 48 h
[19] = system: SF-295; type: cell-based; settings: Homo sapiens, one dose 10^-5 M, 48 h
[20] = system: SR; type: cell-based; settings: Homo sapiens, one dose 10^-5 M, 48 h
[21] = system: UO-31; type: cell-based; settings: Homo sapiens, UO-31, 48 h, one dose 10^-5 M, 48 h
[22] = system: MDA-MB-231/ATCC; type: cell-based; settings: Homo sapiens, one dose 10^-5 M, 48 h
[23] = system: NCI-H522; type: cell-based; settings: Homo sapiens, one dose 10^-5 M, 48 h
[24] = system: SW-620; type: cell-based; settings: Homo sapiens, one dose 10^-5 M, 48 h
[25] = system: ACHN; type: cell-based; settings: Homo sapiens, one dose 10^-5 M, 48 h
[26] = system: K-562; type: cell-based; settings: Homo sapiens, K562, one dose 10^-5 M, 48 h
[27] = system: MCF7; type: cell-based; settings: Homo sapiens, one dose 10^-5 M, 48 h, read-out: % growth
[28] = system: NCI-H226; type: cell-based; settings: Homo sapiens, one dose 10^-5 M, 48 h
[29] = system: EKVX; type: cell-based; settings: Homo sapiens, one dose 10^-5 M, 48 h
[30] = system: KM12; type: cell-based; settings: Homo sapiens, one dose 10^-5 M, 48 h
[31] = system: NCI/ADR-RES; type: cell-based; settings: Homo sapiens, one dose 10^-5 M, 48 h
[32] = system: UACC-257; type: cell-based; settings: Homo sapiens, one dose 10^-5 M, 48 h
[33] = system: T-47D; type: cell-based; settings: Homo sapiens, T47D, one dose 10^-5 M, 48 h, read-out: % growth
[34] = system: 786-0; type: cell-based; settings: Homo sapiens, one dose 10^-5 M, 48 h
[35] = system: full NCI 60 cell lines panel; settings: Homo sapiens, 60 cell, 48 h, read-out: Mean % growth
[36] = system: OVCAR-3; type: cell-based; settings: Homo sapiens, one dose 10^-5 M, 48 h
[37] = system: M14; type: cell-based; settings: Homo sapiens, one dose 10^-5 M, 48 h
[38] = system: SK-MEL-2; type: cell-based; settings: Homo sapiens, one dose 10^-5 M, 48 h
[39] = system: MDA-MB-468; type: cell-based; settings: Homo sapiens, one dose 10^-5 M, 48 h
[40] = system: SF-268; type: cell-based; settings: Homo sapiens, one dose 10^-5 M, 48 h, read-out: % growth
[41] = system: MOLT-4; type: cell-based; settings: Homo sapiens, one dose 10^-5 M, 48 h, read-out: % growth
[42] = system: HCC-2998; type: cell-based; settings: Homo sapiens, one dose 10^-5 M, 48 h
[43] = system: HCT-15; type: cell-based; settings: Homo sapiens, one dose 10^-5 M, 48 h, read-out: % growth
[44] = system: HOP-62; type: cell-based; settings: Homo sapiens, one dose 10^-5 M, 48 h
[45] = system: OVCAR-8; type: cell-based; settings: Homo sapiens, one dose 10^-5 M, 48 h
[46] = system: UACC-62; type: cell-based; settings: Homo sapiens, one dose 10^-5 M, 48 h
[47] = system: MDA-MB-435; type: cell-based; settings: Homo sapiens, one dose 10^-5 M, 48 h, read-out: % growth
[48] = system: MALME-3M; type: cell-based; settings: Homo sapiens, one dose 10^-5 M, 48 h
[49] = system: TK-10; type: cell-based; settings: Homo sapiens, one dose 10^-5 M, 48 h
[50] = system: SNB-19; type: cell-based; settings: Homo sapiens, one dose 10^-5 M, 48 h, read-out: % growth
[51] = system: HL-60(TB); type: cell-based; settings: Homo sapiens, one dose 10^-5 M, 48 h
[52] = system: SF-539; type: cell-based; settings: Homo sapiens, one dose 10^-5 M, 48 h
[53] = system: LOX IMVI; type: cell-based; settings: Homo sapiens, one dose 10^-5 M, 48 h, read-out: % growth
[54] = system: U251; type: cell-based; settings: Homo sapiens, U-251, one dose 10^-5 M, 48 h
[55] = system: DU-145; type: cell-based; settings: Homo sapiens, one dose 10^-5 M, 48 h
[56] = system: HT29; type: cell-based; settings: Homo sapiens, HT-29, one dose 10^-5 M, 48 h
[57] = system: SK-OV-3; type: cell-based; settings: Homo sapiens, one dose 10^-5 M, 48 h
[58] = system: A498; type: cell-based; settings: Homo sapiens, one dose 10^-5 M, 48 h
[59] = system: COLO 205; type: cell-based; settings: Homo sapiens, one dose 10^-5 M, 48 h

SMILES: Nc1nc(S)nc(-c2ccc(Cl)cc2Cl)c1-c1ncn[nH]1 [Compound 5c, 4-Amino-6–(2,4-dichlorophenyl)-5-(1H-1,2,4-triazol-5-yl)pyrimidine-2-thiol]
- percent cell growth at 10 µM [1]: 107%
- % cell growth at 10 µM [2]: 92.7%
- activity at 10 µM [3]: 102%
- % growth at 10 µM [4]: 90.8%
- % cell growth at 10 µM [5]: 115%
- activity at 10 µM [6]: 94.8%
- % growth at 10 µM [7]: 107%
- activity at 10 µM [8]: 110%
- activity at 10 µM [9]: 105%
- % growth at 10 µM [10]: 106%
- % growth at 10 µM [11]: 103%
- activity at 10 µM [12]: 98.6%
- % growth at 10 µM [13]: 105%
- percent cell growth at 10 µM [14]: 95.8%
- activity at 10 µM [15]: 97.8%
- % growth at 10 µM [16]: 102%
- activity at 10 µM [17]: 108%
- % cell growth at 10 µM [18]: 97.3%
- % cell growth at 10 µM [19]: 100%
- percent cell growth at 10 µM [20]: 83.2%
- % cell growth at 10 µM [21]: 89.9%
- % growth at 10 µM [22]: 104%
- % growth at 10 µM [23]: 88.8%
- % growth at 10 µM [24]: 102%
- % growth at 10 µM [25]: 109%
- % growth at 10 µM [26]: 98%
- activity at 10 µM [27]: 94.1%
- % growth at 10 µM [28]: 110%
- % cell growth at 10 µM [29]: 50%
- % growth at 10 µM [30]: 103%
- cell growth percent at 10 µM [31]: 106%
- percent cell growth at 10 µM [32]: 112%
- activity at 10 µM [33]: 106%
- % growth at 10 µM [34]: 90.7%
- activity at 10 µM [35]: 100%
- % growth at 10 µM [36]: 109%
- % growth at 10 µM [37]: 98.7%
- % growth at 10 µM [38]: 104%
- percent cell growth at 10 µM [39]: 104%
- activity at 10 µM [40]: 101%
- activity at 10 µM [41]: 91.4%
- % growth at 10 µM [42]: 105%
- activity at 10 µM [43]: 102%
- % growth at 10 µM [44]: 93.9%
- % growth of cells at 10 µM [45]: 103%
- % growth at 10 µM [46]: 95.3%
- activity at 10 µM [47]: 105%
- % growth at 10 µM [48]: 98.2%
- % cell growth at 10 µM [49]: 114%
- activity at 10 µM [50]: 97.1%
- % growth at 10 µM [51]: 70.9%
- % growth at 10 µM [52]: 101%
- activity at 10 µM [53]: 104%
- % growth at 10 µM [54]: 105%
- % growth at 10 µM [55]: 112%
- % growth at 10 µM [56]: 102%
- % growth at 10 µM [57]: 94.2%
- % growth at 10 µM [58]: 120%
- % growth at 10 µM [59]: 104%
